Tests used:
[1] = tested on: pollakiuria model rats induced by sulprostone; experiment: Suppression of increase in urinary frequency of rats induced by sulprostone; format: in vivo, rat; details: awake rats
[2] = tested on: pollakiuria model rats induced by acetic acid; experiment: Suppression of increase in urinary frequency in rats induced by acetic acid; format: in vivo, rat; details: awake rats; 10 mg/kg orally; dosed 2 days after 1% acetic acid into bladder; frequency within 6 hours
Protocol: (ii) Experiment of Suppression of an Increase in Urinary Frequency in Rats Induced by Acetic Acid
Abdomen of a rat was subjected to a midline incision under anesthetization with pentobarbital (50 mg/kg, i.p.) and bladder was exposed. Urine in the bladder was removed using a syringe equipped with an intraocular injection needle (30 G×¾). After that, 0.5 ml of 1% acetic acid solution was injected into the bladder using a syringe equipped with an intraocular injection needle (30 G×¾) and injury was closed.
With regard to measurement of urination of the animal, the animal was placed in a metabolism cage and urination was recorded with the lapse of time using a urination measuring apparatus (K. K. Neuroscience).
When acetic acid was injected into bladder of rat, urination frequency increased continuously and pollakiuria where each urinated amount decreased was induced. Each of the test drugs was evaluated using the stimulated bladder.
Evaluation of the test drug was conducted in such a manner that the test drug was administered after 2 days from injection of acetic acid into the bladder and suppressing rates for the frequency increased within 6 hours thereafter was compared. Suppressing rate (%) of frequency by each compound was determined by the following formula. […]

In the case of Cc1cc(Cl)ccc1S(=O)(=O)NC[C@H]1C2CCC(CC2)[C@@H]1/C=C\CCCC(=O)O [(1), 6-[(2S,3S)-3-(4-chloro-2-methylphenylsulfonyl-aminomethyl)bicyclo[2.2.2]octan-2-yl]-5Z-hexenoic acid], the “Inhibiting Rate (%) for Urinary Frequency, Sulprostone-Induced Pollakiuria Model” value ([1]; 10 mg/kg orally, sulprostone 200 μg/kg s.c. 30 minutes later, frequency over 3 hours) is reported as 58.0 ± 12.0 % and the “Inhibiting Rate (%) for Urinary Frequency, Acetic Acid-Induced Pollakiuria Model” value [2] is reported as 44.3 ± 12.4 %.
Cl.O=C(CCc1ccncc1)NNC(=O)N1Cc2ccccc2Oc2ccc(Cl)cc21 [(2), 8-chlorodibenz[b,f][1.4]oxazepine-10(11H)-carboxylic acid.2-[1-oxo-3-(4-pyridinyl)propyl]hydrazide.monohydrochloride] was tested, and the “Inhibiting Rate (%) for Urinary Frequency, Sulprostone-Induced Pollakiuria Model” value ([1]; 10 mg/kg subcutaneously, frequency over 3 hours after sulprostone) was 38.2 ± 4.6 %.
CCN(Cc1cc(Cl)ccc1OCC(C)C)c1ccc(C(=O)NS(=O)(=O)c2c(C)noc2C)nn1 [(3), N-(3,5-dimethylisoxazol-4-ylsulfonyl)6-[N-(5-chloro-2-(isobutyloxy)benzyl)-N-ethylamino]pyridazine-3-carboxamide] was tested, and the “Inhibiting Rate (%) for Urinary Frequency, Sulprostone-Induced Pollakiuria Model” value ([1]; 3 mg/kg subcutaneously, frequency over 3 hours after sulprostone) was 49.2 ± 2.8 %.

Source: patent publication US20060100195A1, “Remedies for urinary frequency” (priority 2001, published 2006)
